{"source": "ChEMBL document CHEMBL1125224", "about": "“Examination of HIV-1 protease secondary structure specificity using conformationally constrained inhibitors” (J Med Chem, 1991)"}
{"biological_target": "Human immunodeficiency virus type 1 protease (Human immunodeficiency virus 1, UniProt Q72874)", "experiment": "Concentration required to inhibit HIV-1 protease activity calculated from plots of % inhibition vs inhibitor concentration", "units": {"IC50": "µM"}}
{"smiles": "CCC(C)[C@H](NC(=O)C[C@H](O)[C@H](CC(C)C)NC(=O)CC1C=CCN2C(=O)CCC(CNCc3ccccc3)C(=O)N12)C(=O)N[C@@H](Cc1ccccc1)C(N)=O", "note": "(stereo not given in full)", "IC50": 21}
{"smiles": "CC[C@H](C)[C@H](NC(=O)C[C@H](O)[C@H](CC(C)C)NC(=O)CC1C=CCN2C(=O)CCC(CNCc3ccccc3)C(=O)N12)C(=O)N[C@@H](Cc1ccccc1)C(=O)OC", "note": "(stereo not given in full)", "IC50": 140}
{"smiles": "CCC(C)[C@H](NC(=O)C[C@H](O)[C@H](CC1CCCCC1)NC(=O)CC1CCCN2C(=O)CCC(CN)C(=O)N12)C(=O)N[C@@H](Cc1ccccc1)C(N)=O", "note": "(stereo not given in full)", "IC50": 0.026}
{"smiles": "CCC(C)[C@H](NC(=O)C[C@H](O)[C@H](Cc1ccccc1)NC(=O)CC1C=CCN2C(=O)CCC(CNCc3ccccc3)C(=O)N12)C(=O)N[C@@H](Cc1ccccc1)C(=O)OC", "note": "(stereo not given in full)", "IC50": 350}
{"smiles": "CC[C@H](C)[C@H](NC(=O)C[C@H](O)[C@H](CC1CCCCC1)NC(=O)CC1C=CCN2C(=O)CCC(CNCc3ccccc3)C(=O)N12)C(=O)N[C@@H](Cc1ccccc1)C(=O)O", "note": "(stereo not given in full)", "IC50": 360}
